In ChEMBL document CHEMBL4014283, “Structural insights of SmKDAC8 inhibitors: Targeting Schistosoma epigenetics through a combined structure-based 3D QSAR, in vitro and synthesis strategy” (Bioorg Med Chem, 2017) one finds inhibition data, which are given here for 55 compounds.

This assay deals with T1, Histone deacetylase 8 (Schistosoma mansoni) (UniProt A5H660).
T1 sequence (whole entry): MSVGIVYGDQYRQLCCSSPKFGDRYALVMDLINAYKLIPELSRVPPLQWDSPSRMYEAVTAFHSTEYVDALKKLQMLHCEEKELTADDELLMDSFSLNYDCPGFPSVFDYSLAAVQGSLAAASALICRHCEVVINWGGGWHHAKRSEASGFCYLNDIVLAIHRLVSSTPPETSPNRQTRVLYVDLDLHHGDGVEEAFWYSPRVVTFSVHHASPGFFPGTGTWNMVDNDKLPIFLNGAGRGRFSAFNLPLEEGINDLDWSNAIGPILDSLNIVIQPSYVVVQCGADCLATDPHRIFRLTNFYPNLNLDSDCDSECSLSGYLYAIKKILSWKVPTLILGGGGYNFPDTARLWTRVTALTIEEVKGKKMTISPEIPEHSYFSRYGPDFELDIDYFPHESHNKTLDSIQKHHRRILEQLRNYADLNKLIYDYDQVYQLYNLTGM
Description: Inhibition of Schistosoma mansoni KDAC8 at 30 uM using (FAM)-labeled peptide as substrate after 60 mins by microfluidic assay.

For the compound `CSCCCNC(=O)[C@H]1CC(=O)N2CCC[C@@H]2C(=O)N2CCC[C@H]2C(=O)N[C@@H](C(C)C)C(=O)N1`, the inhibition (as a rule, the relative decrease from the control value, in per cent) came to 0%. For the compound `CC(C)[C@@H]1NC(=O)[C@@H]2CCCN2C(=O)[C@H]2CCCN2C(=O)C[C@@H](C(=O)NCCSSCCNC(=O)[C@@H]2CC(=O)N3CCC[C@@H]3C(=O)N3CCC[C@H]3C(=O)N[C@@H](C(C)C)C(=O)N2)NC1=O`, the inhibition was 0%. `CSCCCNC(=O)[C@@H]1CC(=O)N2CCC[C@@H]2C(=O)N2CCC[C@H]2C(=O)N[C@@H](C(C)C)C(=O)N1`: the inhibition came to 0%. Then `CC(C)[C@@H]1NC(=O)[C@@H]2CCCN2C(=O)[C@H]2CCCN2C(=O)C[C@H](C(=O)NCCSSCCN)NC1=O`, with 0%; and `COC(=O)CCCNC(=O)[C@@H]1CC(=O)N2CCC[C@H]2C(=O)N2CCC[C@@H]2C(=O)N[C@@H](C(C)C)C(=O)N1`, with 0%; and `CC(C)[C@@H]1NC(=O)[C@@H]2CCCN2C(=O)[C@H]2CCCN2C(=O)C[C@H](C(=O)NCCCN)NC1=O`, with 0%.

For the compound `CC(C)[C@@H]1NC(=O)[C@@H]2CCCN2C(=O)[C@H]2CCCN2C(=O)C[C@@H](C(=O)NCCCO)NC1=O`, the inhibition is 0%.

`CC(C)[C@@H]1NC(=O)[C@H]2CCCN2C(=O)[C@@H]2CCCN2C(=O)C[C@H](C(=O)NCCCC(=O)O)NC1=O` returned an inhibition of 0%. `CC(C)[C@@H]1NC(=O)[C@@H]2CCCN2C(=O)[C@H]2CCCN2C(=O)C[C@H](C(=O)O)NC1=O` had an inhibition of 0%. Then `O=C(O)CCCCN1C(=O)[C@H](CCC(=O)NC(c2ccccc2)(c2ccccc2)c2ccccc2)N=C(c2ccccc2)c2ccccc21`, with 0%; and `CSCCCNC(=O)[C@@H]1CC(=O)N2CCC[C@H]2C(=O)N2CCC[C@@H]2C(=O)N[C@@H](C(C)C)C(=O)N1`, with 0%. For the compound `CC(C)[C@@H]1NC(=O)[C@H]2CCCN2C(=O)[C@@H]2CCCN2C(=O)C[C@@H](C(=O)O)NC1=O`, the inhibition was determined as 0%. In the case of `CC(C)[C@@H]1NC(=O)[C@@H]2CCCN2C(=O)[C@H]2CCCN2C(=O)C[C@@H](C(=O)NCCCSSCCCNC(=O)[C@@H]2CC(=O)N3CCC[C@@H]3C(=O)N3CCC[C@H]3C(=O)N[C@@H](C(C)C)C(=O)N2)NC1=O`, the inhibition was 0%. With `CC(C)[C@@H]1NC(=O)[C@@H]2CCCN2C(=O)[C@H]2CCCN2C(=O)C[C@H](C(=O)NCCCSSCCCNC(=O)[C@H]2CC(=O)N3CCC[C@@H]3C(=O)N3CCC[C@H]3C(=O)N[C@@H](C(C)C)C(=O)N2)NC1=O`, the inhibition worked out at 0%.

The compound `CC(C)[C@@H]1NC(=O)[C@H]2CCCN2C(=O)[C@@H]2CCCN2C(=O)C[C@H](C(=O)NCCSSCCNC(=O)[C@H]2CC(=O)N3CCC[C@H]3C(=O)N3CCC[C@@H]3C(=O)N[C@@H](C(C)C)C(=O)N2)NC1=O` came in with an inhibition of 0%. Regarding `CC(C)[C@@H]1NC(=O)[C@@H]2CCCN2C(=O)[C@H]2CCCN2C(=O)C[C@@H](C(=O)NCCCC(=O)O)NC1=O`, the inhibition came out at 0%. Turning to `CC(C)[C@@H]1NC(=O)[C@@H]2CCCN2C(=O)[C@H]2CCCN2C(=O)C[C@@H](C(=O)NCCCS(C)(=O)=O)NC1=O`, the inhibition was 0%. As for `CC(C)[C@@H]1NC(=O)[C@H]2CCCN2C(=O)[C@@H]2CCCN2C(=O)C[C@H](C(=O)NCCCSCCN)NC1=O`, the inhibition worked out at 0%.

With `CC(C)[C@@H]1NC(=O)[C@H]2CCCN2C(=O)[C@@H]2CCCN2C(=O)C[C@@H](C(=O)NCCCS)NC1=O`, the inhibition was 1.45%. Consider `CC(C)[C@@H]1NC(=O)[C@H]2CCCN2C(=O)[C@@H]2CCCN2C(=O)C[C@@H](C(=O)NCCCSCCN)NC1=O`, for which the inhibition was 0%. With `CC(C)[C@@H]1NC(=O)[C@@H]2CCCN2C(=O)[C@H]2CCCN2C(=O)C[C@@H](C(=O)NCCS)NC1=O`, the inhibition came to 0%. On to `CC(C)[C@@H]1NC(=O)[C@H]2CCCN2C(=O)[C@@H]2CCCN2C(=O)C[C@H](C(=O)NCCCSSCCCNC(=O)[C@H]2CC(=O)N3CCC[C@H]3C(=O)N3CCC[C@@H]3C(=O)N[C@@H](C(C)C)C(=O)N2)NC1=O`, for which the inhibition stood at 3.36%. Then `CC(C)[C@@H]1NC(=O)[C@@H]2CCCN2C(=O)[C@H]2CCCN2C(=O)C[C@@H](C(=O)OCc2ccccc2)NC1=O`, with 0%; and `CC(C)[C@@H]1NC(=O)[C@@H]2CCCN2C(=O)[C@H]2CCCN2C(=O)C[C@H](C(=O)NCCS)NC1=O`, with 8.3%.

In the case of `CC(C)[C@@H]1NC(=O)[C@H]2CCCN2C(=O)[C@@H]2CCCN2C(=O)C[C@@H](C(=O)NCCCO)NC1=O`, the inhibition came to 0%. Then `CC(C)[C@@H]1NC(=O)[C@H]2CCCN2C(=O)[C@@H]2CCCN2C(=O)C[C@H](C(=O)O)NC1=O`, with 0%. Then `CC(C)[C@@H]1NC(=O)[C@H]2CCCN2C(=O)[C@@H]2CCCN2C(=O)C[C@@H](C(=O)NCCC[S+](C)[O-])NC1=O` (stereo not given in full), with 0%; and `CC(C)[C@@H]1NC(=O)[C@H]2CCCN2C(=O)[C@@H]2CCCN2C(=O)C[C@@H](C(=O)NCCCS(C)(=O)=O)NC1=O`, with 0%; and `CC(C)[C@@H]1NC(=O)[C@@H]2CCCN2C(=O)[C@H]2CCCN2C(=O)C[C@H](C(=O)NCCCC(=O)O)NC1=O`, with 0%.

For the compound `CC(C)[C@@H]1NC(=O)[C@@H]2CCCN2C(=O)[C@H]2CCCN2C(=O)C[C@H](C(=O)NCCSSCCNC(=O)[C@H]2CC(=O)N3CCC[C@@H]3C(=O)N3CCC[C@H]3C(=O)N[C@@H](C(C)C)C(=O)N2)NC1=O`, the inhibition worked out at 0%. The value for `CC(C)[C@@H]1NC(=O)[C@H]2CCCN2C(=O)[C@@H]2CCCN2C(=O)C[C@H](C(=O)NCCCS)NC1=O` was 3.18%; that for `CC(C)[C@@H]1NC(=O)[C@H]2CCCN2C(=O)[C@@H]2CCCN2C(=O)C[C@H](C(=O)Cc2ccccc2)NC1=O` was 0%. Take `COC(=O)CCCNC(=O)[C@H]1CC(=O)N2CCC[C@H]2C(=O)N2CCC[C@@H]2C(=O)N[C@@H](C(C)C)C(=O)N1`: the inhibition worked out at 1.47%. Take `CC(C)[C@@H]1NC(=O)[C@H]2CCCN2C(=O)[C@@H]2CCCN2C(=O)C[C@H](C(=O)NCCCS(C)(=O)=O)NC1=O`: the inhibition was found to be 0%. Then `CSCCCNC(=O)[C@H]1CC(=O)N2CCC[C@H]2C(=O)N2CCC[C@@H]2C(=O)N[C@@H](C(C)C)C(=O)N1`, with 0%; and `CC(C)[C@@H]1NC(=O)[C@@H]2CCCN2C(=O)[C@H]2CCCN2C(=O)C[C@H](C(=O)NCCCC(=O)NO)NC1=O`, with 25.8%. Compound `CC(C)[C@@H]1NC(=O)[C@H]2CCCN2C(=O)[C@@H]2CCCN2C(=O)C[C@@H](C(=O)OCc2ccccc2)NC1=O` had an inhibition of 0%. Consider `CC(C)[C@@H]1NC(=O)[C@H]2CCCN2C(=O)[C@@H]2CCCN2C(=O)C[C@@H](C(=O)NCCCSSCCCNC(=O)[C@@H]2CC(=O)N3CCC[C@H]3C(=O)N3CCC[C@@H]3C(=O)N[C@@H](C(C)C)C(=O)N2)NC1=O`, for which the inhibition came out at 0%. Compound `CC(C)[C@@H]1NC(=O)[C@@H]2CCCN2C(=O)[C@H]2CCCN2C(=O)C[C@H](C(=O)NCCCS(C)(=O)=O)NC1=O` had an inhibition of 0%. `CC(C)[C@@H]1NC(=O)[C@@H]2CCCN2C(=O)[C@H]2CCCN2C(=O)C[C@H](C(=O)OCc2ccccc2)NC1=O` returned an inhibition of 0%.

`CC(C)[C@@H]1NC(=O)[C@@H]2CCCN2C(=O)[C@H]2CCCN2C(=O)C[C@@H](C(=O)NCCCC(=O)NO)NC1=O`: the inhibition is 21.2%. The value for `CC(C)[C@@H]1NC(=O)[C@@H]2CCCN2C(=O)[C@H]2CCCN2C(=O)C[C@@H](C(=O)NCCC[S+](C)[O-])NC1=O` (stereo not given in full) was 0%; that for `CC(C)[C@@H]1NC(=O)[C@@H]2CCCN2C(=O)[C@H]2CCCN2C(=O)C[C@@H](C(=O)NCCCS)NC1=O` was 0.84%. `CC(C)[C@@H]1NC(=O)[C@@H]2CCCN2C(=O)[C@H]2CCCN2C(=O)C[C@H](C(=O)NCCSSCCNP(=O)(Oc2ccccc2)Oc2ccccc2)NC1=O`: the inhibition was 3%. For the compound `CC(C)[C@@H]1NC(=O)[C@@H]2CCCN2C(=O)[C@H]2CCCN2C(=O)C[C@H](C(=O)NCCCS)NC1=O`, the inhibition amounted to 14.6%. As for `CC(C)[C@@H]1NC(=O)[C@@H]2CCCN2C(=O)[C@H]2CCCN2C(=O)C[C@H](C(=O)NCCC[S+](C)[O-])NC1=O` (stereo not given in full), the inhibition was 0%. `CC(C)[C@@H]1NC(=O)[C@@H]2CCCN2C(=O)[C@H]2CCCN2C(=O)C[C@@H](C(=O)NCCCN)NC1=O` yielded an inhibition of 0%. Compound `CC(C)[C@@H]1NC(=O)[C@@H]2CCCN2C(=O)[C@H]2CCCN2C(=O)C[C@@H](C(=O)O)NC1=O` displayed an inhibition of 0%. For `CC(C)[C@@H]1NC(=O)[C@H]2CCCN2C(=O)[C@@H]2CCCN2C(=O)C[C@@H](C(=O)NCCS)NC1=O`, the inhibition stood at 0%. Then `COC(=O)CCCNC(=O)[C@@H]1CC(=O)N2CCC[C@@H]2C(=O)N2CCC[C@H]2C(=O)N[C@@H](C(C)C)C(=O)N1`, with 0%. `CC(C)[C@@H]1NC(=O)[C@H]2CCCN2C(=O)[C@@H]2CCCN2C(=O)C[C@H](C(=O)NCCC[S+](C)[O-])NC1=O` (stereo not given in full): the inhibition came out at 0%. The compound `CC(C)[C@@H]1NC(=O)[C@H]2CCCN2C(=O)[C@@H]2CCCN2C(=O)C[C@H](C(=O)NCCS)NC1=O` displayed an inhibition of 0%.

As for `CC(C)[C@@H]1NC(=O)[C@H]2CCCN2C(=O)[C@@H]2CCCN2C(=O)C[C@H](C(=O)NCCCO)NC1=O`, the inhibition amounted to 0%.

Take `CC(C)[C@@H]1NC(=O)[C@H]2CCCN2C(=O)[C@@H]2CCCN2C(=O)C[C@@H](C(=O)NCCCC(=O)O)NC1=O`: the inhibition turned out to be 0%. In the case of `CC(C)[C@@H]1NC(=O)[C@@H]2CCCN2C(=O)[C@H]2CCCN2C(=O)C[C@@H](C(=O)NCCSSCCNP(=O)(Oc2ccccc2)Oc2ccccc2)NC1=O`, the inhibition was 0%.
